pIC50: −log10 of the molar value.

Consider one compound from US9284528B2, “Use of stem cell conditioned medium to inhibit oxidation for anti-aging skin” (GROWGENE BIOTECH INC., priority 2014, dated 2016).

This test in a line: ABTS free radicals scavenging assay (antioxidant assay kit, Cayman). It counts as biochemical. The conditions noted are these: 0.0625-1 mM tested; 5 minutes room temperature; absorbance 750 nm. As for the experimental part:
An antioxidant assay kit (Cayman) was used for this assay according to the instructions. Each of samples including 10 μl of 6.25%˜100% conditioned medium or 0.0625˜1 mM L-ascorbic acid (L-AA) was mixed with 10 μl of metmyoglobin, 150 μl chromogen, and 40 μl hydrogen peroxide for reaction at room temperature for 5 minutes. Because stem cell conditioned medium (CM) is a composite component, a percentage (%) instead of a concentration (mM) is presented as the unit of CM herein.
Referring to FIG. 2A, it is a representative diagram showing the effect of WJMSC-CM on scavenging ABTS free radicals. Various concentration of L-ascorbic acid (L-AA) or stem cell conditioned medium (CM) was mixed with an appropriate amount of ABTS and oxidants for reaction. ABTS has an absorption peak at 750 nm. This assay is based on the ability of antioxidants to reduce ABTS into its colourless form and the extent of decolourisation corresponding to the absorbance reduction of ABTS.

In turn, `O=C1O[C@H]([C@@H](O)CO)C(O)=C1O` [L-ascorbic acid] gave a pIC50 of 3.09.

Broadly, the pIC50 is −log10 of the IC50, conventionally taken in molar units.
